Reference: ChEMBL document CHEMBL1126745, “2,2-Dialkylnaphthalen-1-ones as new potassium channel activators” (J Med Chem, 1993)

How the values were obtained:
Rattus norvegicus [1] = species on record: Rattus norvegicus; test: Percentage of inhibition of noradrenaline-induced contractions in rat portal vein at 10 uM (in vitro); format: functional
Rattus norvegicus [2] = test: Change in systolic blood pressure at intervals of 1 hr after oral administration of 1 mg/kg of compound in spontaneously hypertensive rats (in vivo); Not significant; format: functional, Artery
Cavia porcellus = species on record: Cavia porcellus; test: In vitro inhibition of spontaneous tone of guinea pig tracheal spirals; format: functional; conditions: Trachea
Rattus norvegicus [3] = species on record: Rattus norvegicus; test: In vitro inhibition of noradrenaline-induced contractions in rat portal vein; format: functional
Rattus norvegicus [4] = test: Change in systolic blood pressure at intervals of 1 hr after oral administration of 1 mg/kg of compound in spontaneously hypertensive rats (in vivo); format: functional, Artery

SMILES	inhibition at 10 µM (Rattus norvegicus [1])	Delta blood pressure (Rattus norvegicus [2])	IC50 (Cavia porcellus)	IC50 (Rattus norvegicus [3])	Max fall in blood pressure (Rattus norvegicus [4])	Delta blood pressure (Rattus norvegicus [4])
COc1ccc2c(c1)C(N1CCCC1=O)=CC(C)(C)C2=O	20%	<20 mmHg	–	–	–	–
CC1(C)C=C(N2Cc3ccccc3C2=O)c2cc(C#N)ccc2C1=O	–	–	1.3 µM	0.6 µM	34 mmHg	–
CC1(C)C(=O)c2ccccc2[C@@H](n2ccccc2=O)[C@@H]1O	0%	<20 mmHg	–	–	–	–
CC1(C)C=C(N2CCCC2=O)c2cc(Br)ccc2C1=O	–	–	7.3 µM	10 µM	–	–
CC1(C)C(=O)c2ccc(S(=O)(=O)c3ccccc3)cc2[C@@H](n2ccccc2=O)[C@@H]1O	–	–	0.7 µM	0.3 µM	–	–
CC1(C)C(=O)c2ccc(C#N)cc2[C@@H](NC(=O)c2ccccn2)[C@@H]1O	–	–	> 10 µM	23 µM	–	–
CNc1ccc2c(c1)C(n1ccccc1=O)=CC(C)(C)C2=O	–	<20 mmHg	9.1 µM	52 µM	–	–
CC1(C)C(=O)c2ccc(C#N)cc2[C@@H](NC(=O)c2ccccc2)[C@@H]1O	–	–	1.8 µM	–	31 mmHg	–
CC(=O)N[C@@H]1c2cc(C#N)ccc2C(=O)C(C)(C)[C@H]1O	–	–	8.7 µM	45 µM	28.6 mmHg	–
CC1(C)C(=O)c2ccc(Br)cc2C(N2CCCC2=O)[C@@H]1O (stereo partly specified)	40%	–	> 10 µM	–	39 mmHg	–
CC1(C)C=C(n2ccccc2=O)c2ccc(Br)cc2C1=O	–	–	4.7 µM	2.7 µM	37 mmHg	–
CC1(C)C=C(N2CCCCC2=O)c2cc(Br)ccc2C1=O	–	–	3.5 µM	8 µM	43.6 mmHg	–
CC1(C)C(=O)c2ccc(Cl)cc2[C@@H](n2ccccc2=O)[C@@H]1O	0%	–	–	–	–	–
CC1(C)C(=O)c2ccc(Br)cc2[C@@H](n2ccccc2=O)[C@@H]1O	–	–	> 10 µM	28 µM	31 mmHg	–
CC1(C)C(=O)c2ccc(C#N)cc2[C@@H](Oc2ccccn2)[C@@H]1O	–	–	5.5 µM	25 µM	43 mmHg	–
CC1(C)C(=O)c2ccc(C#N)cc2[C@@H](NC(=O)c2ccc(Cl)cc2Cl)[C@@H]1O	35%	<20 mmHg	> 10 µM	–	–	–
CC1(C)C(=O)c2ccc(C#N)cc2[C@@H](OC2=CC(=O)CC2)[C@@H]1O	9%	–	> 10 µM	–	–	50 mmHg
CC1(C)C=C(n2ccccc2=O)c2cc(S(=O)(=O)c3ccccc3)ccc2C1=O	–	–	0.5 µM	0.1 µM	32.6 mmHg	–
CC1(C)C(=O)c2cc(Cl)c(Cl)cc2[C@@H](n2ccccc2=O)[C@@H]1O	–	–	5 µM	1.5 µM	52 mmHg	–
CCC1(CC)CCc2cc(OC)ccc2C1=O	–	–	> 10 µM	8 µM	83 mmHg	–
CC1(C)C(=O)c2ccc(C#N)cc2[C@@H](NC(=O)c2ccncc2)[C@@H]1O	39%	<20 mmHg	> 10 µM	–	–	–
CC1(C)C(=O)c2ccc(Br)cc2[C@@H](N2CCN=C2NC#N)[C@@H]1O	8%	–	> 10 µM	–	27.6 mmHg	–
CC1(C)C(=O)c2ccc(Br)cc2[C@@H](N2CCS/C2=N\C#N)[C@@H]1O	26%	–	–	–	30.5 mmHg	–

SMILES	inhibition at 10 µM (Rattus norvegicus [1])	Delta blood pressure (Rattus norvegicus [2])	IC50 (Cavia porcellus)	IC50 (Rattus norvegicus [3])	Max fall in blood pressure (Rattus norvegicus [4])	Delta blood pressure (Rattus norvegicus [4])
CC(=O)N(C)c1ccc2c(c1)C(n1ccccc1=O)=CC(C)(C)C2=O	–	–	3.1 µM	4.3 µM	74 mmHg	–
CC1(C)C(=O)c2ccc(C(F)(F)F)cc2[C@@H](n2ccccc2=O)[C@@H]1O	–	–	1.4 µM	–	–	–
COC(=O)c1ccc2c(c1)C(n1ccccc1=O)=CC(C)(C)C2=O	–	–	8.5 µM	2.7 µM	39 mmHg	–
CC1(C)C=C(n2ccccc2=O)c2cc(Br)ccc2C1(C)O (stereo unspecified)	23%	<20 mmHg	4.2 µM	–	–	–
CC1(C)C=C(N2CCCC2=O)c2cc(Cl)ccc2C1=O	0%	–	> 10 µM	–	32.5 mmHg	–
C=CCn1nc(O[C@@H]2c3cc(C#N)ccc3C(=O)C(C)(C)[C@H]2O)ccc1=O	–	–	3.9 µM	14 µM	–	–
COc1ccc(C(=O)N[C@@H]2c3cc(C#N)ccc3C(=O)C(C)(C)[C@H]2O)cc1	–	–	12.2 µM	12 µM	–	–
CO/N=C1\c2ccc(C#N)cc2C(n2ccccc2=O)=CC1(C)C	–	–	> 10 µM	25 µM	32.4 mmHg	–
CC1(C)C=C(n2ccccc2=O)c2cc(C#N)ccc2/C1=N\O	27%	–	12.5 µM	–	28 mmHg	–
CC(=O)N(C)c1ccc2c(c1)C(N1CCCC1=O)=CC(C)(C)C2=O	–	–	2.5 µM	17 µM	23 mmHg	–
CC1(C)C(=O)c2ccc(Br)cc2[C@@H](N2Cc3ccccc3C2=O)[C@@H]1O	–	–	> 10 µM	3.1 µM	24 mmHg	–
CC1(C)C=C(n2ccccc2=O)c2cc(Cl)c(Cl)cc2C1=O	–	–	0.1 µM	0.7 µM	58 mmHg	–
CCC1(CC)C=C(n2ccccc2=O)c2cc(Br)ccc2C1=O	–	–	8 µM	3.3 µM	44 mmHg	–
C=Cc1ccc2c(c1)C(n1ccccc1=O)=CC(C)(C)C2=O	–	–	4.6 µM	1.5 µM	30.6 mmHg	–
CC1(C)C(=O)c2ccc(C#N)cc2C(N2CCCC2=O)[C@@H]1O (stereo partly specified)	12%	–	> 10 µM	–	23 mmHg	–
CC1(C)C(=O)c2ccc(C#N)cc2[C@@H](n2ccccc2=O)[C@@H]1OC=O	–	–	4.3 µM	–	42 mmHg	–
CC(=O)O[C@H]1[C@H](n2ccccc2=O)c2cc(C#N)ccc2C(=O)C1(C)C	–	–	2 µM	23 µM	–	–
COC1c2ccc(Br)cc2C(n2ccccc2=O)=CC1(C)C (stereo unspecified)	22%	–	17 µM	–	28 mmHg	–
CC1(C)C=C(NC(=O)c2ccccn2)c2cc(C#N)ccc2C1=O	–	–	3.1 µM	9 µM	22.5 mmHg	–
CC1(C)C=C(n2ccccc2=O)c2cc(Cl)ccc2C1=O	–	–	1.1 µM	1.4 µM	53.7 mmHg	–
CC(=O)N(C)c1ccc2c(c1)[C@@H](n1ccccc1=O)[C@H](O)C(C)(C)C2=O	–	–	> 10 µM	33 µM	94 mmHg	–
CC1(C)C(=O)c2ccc(C#N)cc2[C@@H](NC(=O)c2ccoc2)[C@@H]1O	24%	–	–	–	58 mmHg	–
CC1(C)C=C(N2CCCC2=O)c2ccc(C#N)cc2C1=O	0%	–	–	–	24.5 mmHg	–

SMILES	inhibition at 10 µM (Rattus norvegicus [1])	Delta blood pressure (Rattus norvegicus [2])	IC50 (Cavia porcellus)	IC50 (Rattus norvegicus [3])	Max fall in blood pressure (Rattus norvegicus [4])	Delta blood pressure (Rattus norvegicus [4])
CCC1(CC)C=C(n2ccccc2=O)c2cc(C#N)ccc2C1=O	–	–	2.6 µM	7.8 µM	35.6 mmHg	–
CC1(C)C(=O)c2ccc(Br)cc2[C@@H](Oc2ccccn2)[C@@H]1O	32%	–	–	–	33 mmHg	–
CCc1ccc2c(c1)C(n1ccccc1=O)=CC(C)(C)C2=O	–	–	5.1 µM	5.5 µM	58 mmHg	–
CC1(C)C(=O)c2ccc(F)cc2[C@@H](n2ccccc2=O)[C@@H]1O	0%	–	–	–	21.5 mmHg	–
COc1ccc2c(c1)C(n1ccccc1=O)=CC(C)(C)C2=O	–	–	3.1 µM	21 µM	–	–
CC1(C)C=C(n2ccccc2=O)c2cc(F)ccc2C1=O	–	–	3.9 µM	19 µM	35 mmHg	–
COC(=N)c1ccc2c(c1)C(n1ccccc1=O)=CC(C)(C)C2=O	–	–	3.1 µM	11 µM	–	27.5 mmHg
CC1(C)C=C(n2ccccc2=O)c2cc(C(=O)O)ccc2C1=O	0%	<20 mmHg	> 10 µM	–	–	–
CC1(C)C(=O)c2ccc(C#N)cc2[C@@H](NC(=O)c2cccnc2)[C@@H]1O	–	–	4.1 µM	2.8 µM	50 mmHg	–
CC1(C)C(=O)c2ccc(Br)cc2[C@@H](Oc2ccc(=O)[nH]n2)[C@@H]1O	–	–	4.4 µM	0.8 µM	–	–
COc1ccc2c(c1)[C@@H](n1ccccc1=O)[C@H](O)C(C)(C)C2=O	0%	–	> 10 µM	–	42.9 mmHg	–
CC1(C)C=C(N2CCCC2=O)c2ccc(Br)cc2C1=O	11%	–	> 10 µM	–	54.5 mmHg	–
CC1(C)C(=O)c2ccc(C#N)cc2[C@@H](NC(=O)c2ccc([N+](=O)[O-])cc2)[C@@H]1O	–	<20 mmHg	7.9 µM	4.9 µM	–	–
CC1(C)C=C(N2CCCC2=O)c2ccccc2C1=O	0%	<20 mmHg	–	–	–	–
Cn1nc(OC2=CC(C)(C)C(=O)c3ccc(C#N)cc32)ccc1=O	0%	–	–	–	–	24 mmHg
CC1(C)C=C(n2ccccc2=O)c2ccc(C#N)cc2C1=O	0%	–	> 10 µM	–	41 mmHg	–
CC(=O)c1ccc2c(c1)C(n1ccccc1=O)=CC(C)(C)C2=O	–	–	1 µM	3.3 µM	56.5 mmHg	–
CC1(C)C(=O)c2ccc(C#N)cc2[C@@H](N2Cc3ccccc3C2=O)[C@@H]1O	–	–	1.1 µM	0.5 µM	76 mmHg	–
CC1(C)C(=O)c2ccc(C#N)cc2[C@@H](n2ccccc2=O)[C@@H]1O	–	–	> 10 µM	14 µM	84 mmHg	–
CC1(C)C(=O)c2cc(Br)ccc2[C@@H](n2ccccc2=O)[C@@H]1O	–	–	–	42 µM	29.3 mmHg	–
CC(=O)O[C@H]1[C@H](n2ccccc2=O)c2cc(Br)ccc2C(=O)C1(C)C	38%	–	–	–	29 mmHg	–
